These results are taken from US12612412B2, “Antiviral heterocyclic compounds” (Enanta Pharmaceuticals, Inc., priority 2021, dated 2026).

Assay [1] concerns genotype A, "Long" strain RSV. Kind of assay: RSV-A assay (CPE protection in Hep-2 cells, ATPlite readout). Format: cell-based, Human respiratory syncytial virus (HRSV). To be noted: genotype A “Long” strain RSV, MOI 0.1, CPE protection, read-out: Human RSV-A (“Long”). The essentials: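 Compound effect on RSV-induced CPE: Hep-2 monolayers, MOI 0.1, duplicate 2-fold titrations, 5-day culture in 10% FBS DMEM. Readout is ATP-based luminescence, normalised to virus-only and no-virus controls, giving EC50.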

Assay [2] has as its system HMPV clinical isolate TN/1501/A1. The assay can be described thus: HMPV antiviral assay Method-B (clinical isolate TN/1501/A1 in LLC-MK2 cells, ATP-Lite readout). The class given is cell-based, Human metapneumovirus (HMPV). To be noted: human metapneumovirus, LLC-MK2, 144 h, hMPV WT1501 (clinical isolate TN/1501/A1), 6 days. The essentials:
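LLC-MK2 cells infected in suspension with TN/1501/A1 at MOI 0.014 in serum-free medium with 2 μg/mL TPCK-trypsin (final), incubated 6 days at 37° C. Compounds tested in duplicate, 10-point 3-fold dilutions from 10 μM. Cell health read by ATP-Lite luminescence, normalised to virus-only and cells-only controls; EC50 by four-parameter logistic fit.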

The mark [3] stands for this setting: human respiratory syncytial virus.

Where two headings read alike, the source gives them in different places.

With `Cc1nc2c(OC3CC3)cc(C(=O)NC[C@](O)(c3cc4c(c(-c5ccc6c(c5)OC(F)(F)O6)n3)OC[C@]4(C)C(N)=O)C3CC3)cc2cc1Cl` [Example 540], the results for the EC50 in assay [1] (setting [3]) and in assay [2] were under 200 nM and under 500 nM, respectively.
For `Cc1cnc2c(OCC(F)F)cc(C(=O)NC[C@](O)(c3cc4c(c(-c5ccc6c(c5)OC(F)(F)O6)n3)OC[C@]4(C)C(N)=O)C3CC3)cc2c1` [Example 541], in that order: under 200 nM and under 500 nM.
For `Cc1cnc2c(OC(F)(F)F)cc(C(=O)NC[C@](O)(c3cc4c(c(-c5ccc6c(c5)OC(F)(F)O6)n3)OC[C@]4(C)C(N)=O)C3CC3)cc2c1` [Example 542], in that order: under 200 nM and under 500 nM.
With `COc1cc(C(=O)NC[C@](O)(c2cc3c(c(-c4ccc5c(c4)OC(F)(F)O5)n2)OC[C@]3(C)C(N)=O)C2CC2)cc2cc(Br)cnc12` [Example 543], the figures for the EC50 in assay [1] (setting [3]) and in assay [2] were under 200 nM and under 500 nM, respectively.
Consider `C[C@]1(C(N)=O)COc2c1cc([C@@](O)(CNC(=O)c1cc(F)c3nn(C4CC4)cc3c1)C(F)(F)F)nc2-c1ccc2c(c1)OC(F)(F)O2` [Example 544], for which the EC50 in assay [1] (setting [3]) was under 200 nM; in assay [2] it was under 500 nM.
On to `C[C@]1(C(N)=O)COc2c1cc([C@@](O)(CNC(=O)c1cc(F)c3nn(C4CC4)cc3c1)C1CC1)nc2-c1ccc2c(c1)OC(F)(F)O2` [Example 545], for which the EC50 in assay [1] (setting [3]) was under 200 nM; in assay [2], under 500 nM.
Take `C[C@]1(C(N)=O)COc2c1cc([C@@](O)(CNC(=O)c1cc(Cl)c3nn(C4CC4)cc3c1)C(F)(F)F)nc2-c1ccc2c(c1)OC(F)(F)O2` [Example 546]: the results for the EC50 in assay [1] (setting [3]) and in assay [2] were under 200 nM and under 500 nM, respectively.
Consider `C[C@]1(C(N)=O)COc2c1cc([C@@](O)(CNC(=O)c1cc(Cl)c3nn(C4CC4)cc3c1)C1CC1)nc2-c1ccc2c(c1)OC(F)(F)O2` [Example 547], for which the results for the EC50 in assay [1] (setting [3]) and in assay [2] were under 200 nM and under 500 nM, respectively.
Regarding `C[C@]1(C(N)=O)COc2c1cc([C@@](O)(CNC(=O)c1cc(F)c3nc(C4CC4)cn3c1)C(F)(F)F)nc2-c1ccc2c(c1)OC(F)(F)O2` [Example 548], the results for the EC50 in assay [1] (setting [3]) and in assay [2] were under 200 nM and under 500 nM, respectively.
For `C[C@]1(C(N)=O)COc2c1cc([C@@](O)(CNC(=O)c1cc(F)c3nc(C4CC4)cn3c1)C1CC1)nc2-c1ccc2c(c1)OC(F)(F)O2` [Example 549], in that order: under 200 nM and under 500 nM.
The like results for `COc1cc(C(=O)NC[C@](O)(c2cc3c(c(-c4ccc(F)c(Cl)c4F)n2)OC[C@]3(C)C(N)=O)C(F)(F)F)cc2cn(C3(F)CC3)nc12` [Example 550] were, in that order, under 200 nM and under 500 nM.
As for `COc1cc(C(=O)NC[C@](O)(c2cc3c(c(-c4ccc(F)c(Cl)c4F)n2)OC[C@]3(C)C(N)=O)C(F)(F)F)cc2cn(C(F)F)nc12` [Example 551], the figures for the EC50 in assay [1] (setting [3]) and in assay [2] were under 200 nM and under 500 nM, respectively.
For `COc1cc(C(=O)NC[C@](O)(c2cc3c(c(-c4ccc(F)c(Cl)c4F)n2)OC[C@]3(C)C(N)=O)C(F)(F)F)cc2cc(Cl)c(C)nc12` [Example 552], in that order: under 200 nM and under 500 nM.
Take `Cc1cnc2c(OC(F)F)cc(C(=O)NC[C@](O)(c3cc4c(c(-c5ccc(F)c(Cl)c5F)n3)OC[C@]4(C)C(N)=O)C(F)(F)F)cc2c1` [Example 553]: the results for the EC50 in assay [1] (setting [3]) and in assay [2] were under 200 nM and under 500 nM, respectively.
With `COc1cc(C(=O)NC[C@](O)(c2cc3c(c(-c4ccc(F)c(Cl)c4F)n2)OC[C@]3(C)C(N)=O)C2CC2)cc2cn(C3CC3)nc12` [Example 554], the EC50 in assay [1] (setting [3]) was under 200 nM; in assay [2] it was under 500 nM.
For `COc1cc(C(=O)NC[C@](O)(c2cc3c(c(-c4ccc(F)c(Cl)c4F)n2)OC[C@]3(C)C(N)=O)C2CC2)cc2cn(C3(F)CC3)nc12` [Example 555], in that order: under 200 nM and under 500 nM.
For `COc1cc(C(=O)NC[C@](O)(c2cc3c(c(-c4ccc(F)c(Cl)c4F)n2)OC[C@]3(C)C(N)=O)C2CC2)cc2cn(C(F)F)nc12` [Example 556], in that order: under 200 nM and under 500 nM.
Regarding `COc1cc(C(=O)NC[C@](O)(c2cc3c(c(-c4ccc(F)c(Cl)c4F)n2)OC[C@]3(C)C(N)=O)C2CC2)cc2cc(Cl)c(C)nc12` [Example 557], the EC50 was under 200 nM in assay [1] (setting [3]) and under 500 nM in assay [2].
For `Cc1cnc2c(OC(F)F)cc(C(=O)NC[C@](O)(c3cc4c(c(-c5ccc(F)c(Cl)c5F)n3)OC[C@]4(C)C(N)=O)C3CC3)cc2c1` [Example 558], the EC50 is under 200 nM in assay [1] (setting [3]) and under 500 nM in assay [2].
The like results for `C[C@]1(C(N)=O)COc2c1cc([C@@](O)(CNC(=O)c1cc(Cl)c3nn(C4CC4)cc3c1)C1CC1)nc2-c1ccc(F)c(Cl)c1F` [Example 559] were, in that order, under 200 nM and under 500 nM.
Take `C[C@]1(C(N)=O)COc2c1cc([C@@](O)(CNC(=O)c1cc(OC3CC3)c3nc(C4CC4)cn3c1)C1CC1)nc2-c1ccc(F)c(Cl)c1F` [Example 560]: the EC50 in assay [1] (setting [3]) was under 200 nM; in assay [2], under 500 nM.
On to `COc1cc(C(=O)NC[C@](O)(c2cc3c(c(-c4ccc(F)c(Cl)c4F)n2)OC[C@]3(C)C(N)=O)C2CC2)cc2cc(Br)cnc12` [Example 561], for which the EC50 in assay [1] (setting [3]) is under 200 nM; in assay [2], under 500 nM.
On to `COc1cc(C(=O)NC[C@](O)(c2cc3c(c(-c4ccc(F)c(F)c4Cl)n2)OC[C@]3(C)C(N)=O)C2CC2)cc2cn(C3(F)CC3)nc12` [Example 562], for which the EC50 is under 200 nM in assay [1] (setting [3]) and under 500 nM in assay [2].
The like results for `COc1cc(C(=O)NC[C@](O)(c2cc3c(c(-c4ccc(F)c(F)c4Cl)n2)OC[C@]3(C)C(N)=O)C2CC2)cc2cn(C(F)F)nc12` [Example 563] were, in that order, under 200 nM and under 500 nM.
The like results for `C[C@]1(C(N)=O)COc2c1cc([C@@](O)(CNC(=O)c1cc(Cl)c3nn(C4CC4)cc3c1)C1CC1)nc2-c1ccc(F)c(F)c1Cl` [Example 564] were, in that order, under 200 nM and under 500 nM.
As for `COc1cc(C(=O)NC[C@](O)(c2cc3c(c(-c4ccc(F)c(F)c4Cl)n2)OC[C@]3(C)C(N)=O)C2CC2)cc2cc(Cl)c(C)nc12` [Example 565], the EC50 was under 200 nM in assay [1] (setting [3]) and under 500 nM in assay [2].
The like results for `Cc1cnc2c(OC(F)F)cc(C(=O)NC[C@](O)(c3cc4c(c(-c5ccc(F)c(F)c5Cl)n3)OC[C@]4(C)C(N)=O)C3CC3)cc2c1` [Example 566] were, in that order, under 200 nM and under 500 nM.
For `C[C@]1(C(N)=O)COc2c1cc([C@@](O)(CNC(=O)c1cc(OC3CC3)c3nn(C(F)F)cc3c1)C(F)(F)F)nc2-c1ccc(F)c(Cl)c1F` [Example 567], the values for the EC50 in assay [1] (setting [3]) and in assay [2] were under 200 nM and under 500 nM, respectively.
For `C[C@]1(C(N)=O)COc2c1cc([C@@](O)(CNC(=O)c1cc(OC3CC3)c3nn(C(F)F)cc3c1)C1CC1)nc2-c1ccc(F)c(Cl)c1F` [Example 568], in that order: under 200 nM and under 500 nM.
The like results for `C[C@]1(C(N)=O)COc2c1cc([C@@](O)(CNC(=O)c1cc(OC3CC3)c3nn(C(F)F)cc3c1)C(F)(F)F)nc2-c1ccc2c(c1)OC(F)(F)O2` [Example 569] were, in that order, under 200 nM and under 500 nM.
Take `C[C@]1(C(N)=O)COc2c1cc([C@@](O)(CNC(=O)c1cc(Cl)c3nn(C(F)F)cc3c1)C1CC1)nc2-c1ccc(F)c(Cl)c1F` [Example 570]: the EC50 in assay [1] (setting [3]) is under 200 nM; in assay [2], under 500 nM.
For `C[C@]1(C(N)=O)COc2c1cc([C@@](O)(CNC(=O)c1cc(F)c3nn(C(F)F)cc3c1)C1CC1)nc2-c1ccc(F)c(Cl)c1F` [Example 571], in that order: under 200 nM and under 500 nM.
For `COc1cc(C(=O)NC[C@](O)(c2cc3c(c(-c4ccc(F)c(Cl)c4F)n2)OC[C@]3(C)C(N)=O)C2CC2)cc2cc(C(F)(F)F)cnc12` [Example 572], in that order: under 200 nM and under 500 nM.
Take `CC[C@]1(C(N)=O)COc2c1cc([C@@](O)(CNC(=O)c1cc(OC)c3nn(C4CC4)cc3c1)C(F)(F)F)nc2-c1ccc(F)cc1` [Example 573]: the EC50 was under 200 nM in assay [1] and under 500 nM in assay [2].
With `COc1cc(C(=O)NC[C@](O)(c2cc3c(c(-c4ccc(F)c(Cl)c4)n2)OC[C@]3(C)C(N)=O)C2CC2)cc2cn(C(F)F)nc12` [Example 574], the EC50 in assay [1] (setting [3]) was under 200 nM; in assay [2], under 500 nM.
Turning to `COc1cc(C(=O)NC[C@](O)(c2cc3c(c(-c4ccc(F)c(Cl)c4)n2)OC[C@]3(C)C(N)=O)C2CC2)cc2cn(C3CC3)nc12` [Example 575], the EC50 in assay [1] (setting [3]) was under 200 nM; in assay [2], under 500 nM.
For `COc1cc(C(=O)NC[C@](O)(c2cc3c(c(-c4ccc(C#N)c(Cl)c4)n2)OC[C@]3(C)C(N)=O)C(F)(F)F)cc2cn(C(F)F)nc12` [Example 576], in that order: under 200 nM and over 500 nM.
`COc1cc(C(=O)NC[C@](O)(c2cc3c(c(-c4ccc(C#N)c(Cl)c4)n2)OC[C@]3(C)C(N)=O)C(F)(F)F)cc2cc(Cl)c(C)nc12` [Example 578]: the EC50 is under 200 nM in assay [1] (setting [3]) and over 500 nM in assay [2].
On to `COc1cc(C(=O)NC[C@](O)(c2cc3c(c(-c4ccc(C(F)(F)F)c(Cl)c4)n2)OC[C@]3(C)C(N)=O)C(F)(F)F)cc2cn(C3CC3)nc12` [Example 579], for which the EC50 in assay [1] (setting [3]) is under 200 nM; in assay [2] it was over 500 nM.
